Test results taken from ChEMBL document CHEMBL4219188, “Design, synthesis, neuroprotective, antibacterial activities and docking studies of novel thieno[2,3-d]pyrimidine-alkyne Mannich base and oxadiazole hybrids” (Bioorg Med Chem Lett, 2018).
≈ marks a conversion by molar mass, not a printed value.

Assays:
[1] = tested on: Bacillus subtilis; test: Antibacterial activity against Bacillus subtilis assessed as diameter of inhibition zone measured after 24 hrs by agar well diffusion method; assay type: functional
[2] = tested on: Escherichia coli; test: Antibacterial activity against Escherichia coli assessed as diameter of inhibition zone measured after 24 hrs by agar well diffusion method; assay type: functional
[3] = tested on: Pseudomonas aeruginosa; test: Antibacterial activity against Pseudomonas aeruginosa assessed as diameter of inhibition zone measured after 24 hrs by agar well diffusion method; assay type: functional
[4] = Cytotoxicity against rat PC12 cells after 24 hrs by MTT assay; assay type: cell-based, PC-12; details: for MNTC at 24 h: read-out: MNCC
[5] = Cytotoxicity against rat PC12 cells assessed as cell viability at MNTC after 24 hrs by MTT assay relative to control; assay type: cell-based, PC-12; details: read-out: Activity
[6] = Cytotoxicity against rat PC12 cells assessed as cell viability at CC50 after 24 hrs by MTT assay relative to control; assay type: cell-based, PC-12; details: read-out: Activity
[7] = tested on: PC-12; test: Neuroprotective activity against H2O2-induced cytotoxicity in rat PC12 cells assessed as increase in cell viability pretreated for 24 hrs followed by H2O2 addition by MTT assay; assay type: functional, cell-based
[8] = tested on: PC-12; test: Neuroprotective activity against H2O2-induced cytotoxicity in rat PC12 cells assessed as cell viability at EC50 pretreated for 24 hrs followed by H2O2 addition by MTT assay relative to control; assay type: functional
[9] = tested on: Staphylococcus aureus; test: Antibacterial activity against Staphylococcus aureus assessed as diameter of inhibition zone measured after 24 hrs by agar well diffusion method; assay type: functional
[10] = tested on: Staphylococcus aureus; test: Antibacterial activity against Staphylococcus aureus after 24 hrs by UV-vis spectrophotometric method; assay type: functional
[11] = tested on: Bacillus subtilis; test: Antibacterial activity against Bacillus subtilis after 24 hrs by UV-vis spectrophotometric method; assay type: functional
[12] = tested on: Escherichia coli; test: Antibacterial activity against Escherichia coli after 24 hrs by UV-vis spectrophotometric method; assay type: functional
[13] = tested on: Pseudomonas aeruginosa; test: Antibacterial activity against Pseudomonas aeruginosa after 24 hrs by UV-vis spectrophotometric method; assay type: functional

Compound	diameter of the inhibition zone (DIZ) [1]	diameter of the inhibition zone (DIZ) [2]	diameter of the inhibition zone (DIZ) [3]	CC50 at 24 h [4]	MNTC at 24 h [4]	viability at 24 h [5]	viability at 24 h [6]	Activity [7]	EC50 [7]	Activity [8]	diameter of the inhibition zone (DIZ) [9]	MIC [10]	MIC [11]	MIC [12]	MIC [13]
Cc1c(C(=O)OCC#CCN2CCN(c3cc(C4CC4)ccc3C#N)CC2)sc2ncnc(N3CCOCC3)c12	10 mm	12 mm	13 mm	198 µg/mL (≈ 356 µM)	150 µg/mL	99.1%	49.9%	Dose-dependent effect	12.4 µg/mL (≈ 22.3 µM)	75.15%	13 mm	0.312 µg/mL (≈ 0.56 µM)	0.124 µg/mL (≈ 0.223 µM)	0.186 µg/mL (≈ 0.334 µM)	0.0634 µg/mL (≈ 0.114 µM)
Cc1ccc(-c2nnc(-c3sc4ncnc(N5CCOCC5)c4c3C)o2)cc1	15 mm	18 mm	14 mm	86.1 µg/mL (≈ 219 µM)	68 µg/mL	97.6%	49.2%	Dose-dependent effect	26.6 µg/mL (≈ 67.6 µM)	74.2%	18 mm	0.0546 µg/mL (≈ 0.139 µM)	0.0464 µg/mL (≈ 0.118 µM)	0.0132 µg/mL (≈ 0.0335 µM)	0.0442 µg/mL (≈ 0.112 µM)
Cc1c(-c2nnc(-c3ccccc3)o2)sc2ncnc(N3CCCCC3)c12	14 mm	10 mm	13 mm	146 µg/mL (≈ 387 µM)	100 µg/mL	99.2%	54.1%	Dose-dependent effect	22.1 µg/mL (≈ 58.6 µM)	76.88%	11 mm	0.0125 µg/mL (≈ 0.0331 µM)	0.0128 µg/mL (≈ 0.0339 µM)	0.0132 µg/mL (≈ 0.035 µM)	0.0144 µg/mL (≈ 0.0381 µM)
Cc1c(-c2nnc(-c3ccc(Cl)cc3)o2)sc2ncnc(N3CCOCC3)c12	18 mm	13 mm	18 mm	168 µg/mL (≈ 406 µM)	120 µg/mL	98.3%	51.1%	Dose-dependent effect	28.2 µg/mL (≈ 68 µM)	77.18%	13 mm	0.0136 µg/mL (≈ 0.0329 µM)	0.0144 µg/mL (≈ 0.0348 µM)	0.0172 µg/mL (≈ 0.0416 µM)	0.0144 µg/mL (≈ 0.0348 µM)
COc1cccc(N2CCN(CC#CCOC(=O)c3sc4ncnc(N5CCOCC5)c4c3C)CC2)c1	16 mm	14 mm	14 mm	161 µg/mL (≈ 308 µM)	114 µg/mL	98.1%	50%	Dose-dependent effect	38.4 µg/mL (≈ 73.6 µM)	76.78%	12 mm	0.0311 µg/mL (≈ 0.0596 µM)	0.012 µg/mL (≈ 0.023 µM)	0.501 µg/mL (≈ 0.96 µM)	0.0124 µg/mL (≈ 0.0238 µM)
Cc1ccc(-c2nnc(-c3sc4ncnc(N5CCCCC5)c4c3C)o2)cc1	17 mm	11 mm	12 mm	161 µg/mL (≈ 411 µM)	110 µg/mL	99.5%	49.2%	Dose-dependent effect	28.2 µg/mL (≈ 72 µM)	74.98%	14 mm	0.0404 µg/mL (≈ 0.103 µM)	0.0142 µg/mL (≈ 0.0363 µM)	0.0138 µg/mL (≈ 0.0352 µM)	0.0201 µg/mL (≈ 0.0513 µM)
Cc1c(C(=O)OCC#CCN2CCN(c3ccc(Br)cc3C#N)CC2)sc2ncnc(N3CCOCC3)c12	12 mm	13 mm	12 mm	122 µg/mL (≈ 205 µM)	100 µg/mL	99.6%	49%	Dose-dependent effect	32.3 µg/mL (≈ 54.2 µM)	75.44%	10 mm	0.526 µg/mL (≈ 0.883 µM)	0.0628 µg/mL (≈ 0.105 µM)	0.0324 µg/mL (≈ 0.0544 µM)	0.0128 µg/mL (≈ 0.0215 µM)
COc1ccc(-c2nnc(-c3sc4ncnc(N5CCCCC5)c4c3C)o2)cc1	14 mm	17 mm	12 mm	124 µg/mL (≈ 305 µM)	100 µg/mL	99%	49.9%	Dose-dependent effect	20.1 µg/mL (≈ 49.4 µM)	75.12%	10 mm	0.0366 µg/mL (≈ 0.0898 µM)	0.0642 µg/mL (≈ 0.158 µM)	0.0486 µg/mL (≈ 0.119 µM)	0.0448 µg/mL (≈ 0.11 µM)
